{"source": "patent US9051335B2", "about": "“Antipruritic agent for pruritus caused by multiple sclerosis” (TORAY INDUSTRIES, INC., priority 2005, dated 2015)", "system": "MRL/lpr mice", "assay": "Spontaneous scratching behavior in MRL/lpr mice (antipruritic effect)", "format": "in vivo", "details": "20 weeks old female MRL/lpr mice, n=8", "procedure": "[drawing 8] which is an κ opioid receptor agonist compound against pruritus was evaluated. The evaluation was carried out over 5 days dividedly. On Day 1, sterilized distilled water was orally administered 30 minutes before the beginning of the recording of the scratching behavior, and the number of scratching behavior when the mouse received a solvent was counted for 60 minutes. On Day 2, Compound 1 was orally administered to the same mouse 30 minutes before the beginning of the recording of the scratching behavior at a dose of 3 μg/kg, and the number of scratching behavior was counted for 60 minutes. On Days 3 to 5, the experiments were carried out in the same schedule as in Day 2 increasing the dose of Compound 1 such that the doses of Compound 1 on Day 3, Day 4 and Day 5 were 10 μg/kg, 30 μg/kg and 100 μg/kg, respectively (n=8). […] The number of scratching behavior was counted visually by replaying the video tape. The number of scratching behavior was counted such that the series of behavior from raising the hind leg for starting the scratching to putting down the hind leg were counted as one scratching behavior. […]"}
{"smiles": "CN(C(=O)/C=C/c1ccoc1)[C@@H]1CC[C@@]2(O)[C@H]3Cc4ccc(O)c5c4[C@@]2(CCN3CC2CC2)[C@H]1O5.Cl", "note": "[Compound 1, (−)-17-cyclopropylmethyl-4,5α-epoxy-3,14β-dihydroxy-6β-(N-methyl-trans-3-(3-furyl)acrylamido)morphinan hydrochloric acid salt]", "values": [{"measurement": "number of scratching behavior (60 minutes) versus control group at the time of administration of the solvent", "setting": "30 μg/kg orally 30 minutes before recording, significant at statistical level of 5%", "value": "decreased"}, {"measurement": "number of scratching behavior (60 minutes) versus control group at the time of administration of the solvent", "setting": "100 μg/kg orally 30 minutes before recording, significant at statistical level of 1%", "value": "decreased"}]}
